Measurements published in patent US8993595B2, “Macrocyclic serine protease inhibitors” (priority 2009, dated 2015).

Legend:
[1] = tested on: human peripheral blood lymphocytes; type: cell-based; details: up to 84 μg/mL, with and without S9
Method: The potential for compound 52 to induce mutations in a bacterial system (S. typhimurium and E. coli—at concentrations up to 5,000 μg/plate), to induce chromosomal aberrations in cultures of human peripheral blood lymphocytes (at concentrations up to 84 μg/mL), and to induce clastogenic and/or aneugenic activity in CD-1 mice (at oral doses up to 2,000 mg/kg) was evaluated. The two in vitro studies were performed with and without the addition of a mammalian metabolic activation system (rat liver S9 subcellular fraction).

in vitro [2] = type: cell-based; details: human; GS4.1 cells, Cell Titer 96 AQueous One Solution
Method: For cytotoxicity evaluation, GS4.1 cells were treated with compounds as described above and cellular viability was monitored using the Cell Titer 96 AQueous One Solution Cell Proliferation Assay (Promega). CC50 values were determined from the % cytotoxicity versus concentration data with Tecan Magellan software as described above.

1b replicon = test: HCV replicon luciferase assay, genotype 1b; type: cell-based
Method: Compound 52 was tested against genotypes 1a, 1b, and 2a in an HCV replicon assay as described in Example 2. Replicon cells (genotype 1a or 1b) were seeded onto 96-well plates, cultured for three days in the presence of the compound, and subject to a luciferase assay.
Drug solutions were made up freshly in Huh-7 media as 2× stocks. Ten additional 5-fold dilutions were prepared from these stocks in DMEM without G418. […] Cells were then incubated at 37° C./5% CO2. […] For this, media was removed from the plates via gentle tapping. Fifty microliters of ONE-glo luciferase assay reagent was added to each well. […] The EC50 values were calculated from dose response curves from the resulting best-fit equations determined by Microsoft Excel and XLfit 4.1 software.

in vitro [3] = details: human, Caco-2, pH 7.4
Method: Caco-2 cells were grown to confluence on collagen-coated, microporous, polycarbonate membranes in 12-well Costar Transwell plates. 5 μM of compound 52 was prepared in Hanks balanced salt solution containing 10 mM HEPES and 15 mM glucose at a pH of 7.4. Cell monolayers were dosed on the apical side (A-to-B) or basolateral side (B-to-A). Samples were taken from the receiver chambers at 120 min and quantified by LC-MS/MS.

[4] = tested on: genotype 1b replicon cells; test: Selection of drug-resistant genotype 1b replicon cell lines; type: cell-based, HCV; details: all eight selected genotype 1b cell lines
Method: Replicon cells (genotype 1a or 1b) were treated with various concentrations of compound 52 in the presence of G418. Treatment-emergent genotypic changes were identified by population sequencing of NS3 (both protease and helicase regions). The activity of compound 52 and other compounds was evaluated by NS5A western blot after selection or luciferase assay during and after selection.
Eight drug-resistance replicon cell lines were created by long-term culture of genotype 1b replicon cells with 10 or 25 nM of compound 52. NS3 (AAs 1-631) was sequenced at each passage.

[5] = tested on: central nervous, renal, and gastrointestinal systems of mice; parameters: species or system CD-1 mouse; details: mouse, in vivo
From the text: One in vitro GLP safety pharmacology study evaluated the effects of compound 52 on hERG channel currents in voltage-clamped human embryonic kidney cells (HEK293) stably expressing the human ether-à-go-go-related gene (hERG) channel. Four in vivo GLP safety pharmacology studies evaluated the potential effects of the compound on the cardiovascular and respiratory systems in the cynomolgus monkey and on the central nervous, renal, and gastrointestinal systems in the CD-1 mouse at single oral doses up to 250 mg/kg of compound 52.

[6] = Cytotoxicity in parallel, colorimetric proliferation assay, 1a replicon cells; type: cell-based; details: human, replicon cells (genotype 1a)
[7] = target: T1, HCV NS3-4A Protease Genotype 1b (Hepatitis C virus genotype 1b, UniProt Q9WMX2); test: HCV protease assay, recombinant NS3-4A genotype 1b; type: biochemical; details: mean ± SD, 3 experiments
T1 construct: recombinant HCV NS3-4A proteases
T1 sequence (Q9WMX2 1658-1711): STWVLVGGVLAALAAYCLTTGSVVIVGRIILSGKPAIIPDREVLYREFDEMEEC
T1 sequence (Q9WMX2 1027-1657): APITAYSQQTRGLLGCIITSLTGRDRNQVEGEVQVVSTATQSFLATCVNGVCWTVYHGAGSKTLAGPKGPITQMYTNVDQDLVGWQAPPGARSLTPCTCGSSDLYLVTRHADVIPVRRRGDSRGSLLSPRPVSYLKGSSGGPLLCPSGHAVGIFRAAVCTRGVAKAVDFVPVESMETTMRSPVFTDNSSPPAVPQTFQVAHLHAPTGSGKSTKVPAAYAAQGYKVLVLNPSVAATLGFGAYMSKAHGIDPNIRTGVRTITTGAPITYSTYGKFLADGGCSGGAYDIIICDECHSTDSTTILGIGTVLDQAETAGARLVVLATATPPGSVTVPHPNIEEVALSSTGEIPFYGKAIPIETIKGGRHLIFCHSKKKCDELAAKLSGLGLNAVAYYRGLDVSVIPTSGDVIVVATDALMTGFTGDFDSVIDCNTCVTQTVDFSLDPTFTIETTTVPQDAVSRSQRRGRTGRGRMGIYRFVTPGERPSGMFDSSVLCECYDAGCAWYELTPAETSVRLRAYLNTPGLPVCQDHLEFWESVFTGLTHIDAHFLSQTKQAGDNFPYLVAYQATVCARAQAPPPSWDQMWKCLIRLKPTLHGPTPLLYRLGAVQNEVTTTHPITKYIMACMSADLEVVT
Method: The compounds were tested at a variety of concentrations in assay buffer containing a final DMSO concentration of 5%. Reactions were allowed to proceed for 60 min at room temperature and fluorescence measurements were recorded with a Tecan Infinity Spectrofluorimeter. The IC50 values were determined from the percent inhibition versus concentration data using a sigmoidal non-linear regression analysis based on four parameters with Tecan Magellan software.
Compound 52 was tested against genotypes 1a, 1b, 2a, 3a, and 4a of recombinant HCV NS3-4A proteases, along with other cellular proteases.

HCV NS3-NS4A protease = target: T2, HCV NS3-NS4A protease (Hepatitis C virus genotype 1a, UniProt P27958); test: HCV Protease Assay (SensoLyte 620 HCV Protease Assay kit); type: biochemical; details: 1.2 nM HCV NS3-NS4A protease, 60 min, room temperature
T2 construct: HCV NS3-NS4A protease, which was obtained according to Taremi et al; made in house
T2 sequence (P27958 1027-1208): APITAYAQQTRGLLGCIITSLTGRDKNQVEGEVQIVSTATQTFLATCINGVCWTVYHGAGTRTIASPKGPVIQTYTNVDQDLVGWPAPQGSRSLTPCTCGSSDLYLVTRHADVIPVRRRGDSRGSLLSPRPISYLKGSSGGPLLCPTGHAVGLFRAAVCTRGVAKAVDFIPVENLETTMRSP
Method: Measurement of the inhibitory effect of compounds on HCV protease activity was performed with the SensoLyte™ 620 HCV Protease Assay kit from AnaSpec, Inc. (San Jose, Calif.) under conditions described by the supplier using 1.2 nM HCV NS3-NS4A protease, which was obtained according to Taremi et al. (Protein Science, 1998, 7, 2143-2149). The compounds were tested at a variety of concentrations in assay buffer containing a final DMSO concentration of 5%. Reactions were allowed to proceed for 60 min at room temperature and fluorescence measurements were recorded with a Tecan Infinity Spectrofluorimeter. The IC50 values were determined from the percent inhibition versus concentration data using a sigmoidal non-linear regression analysis based on four parameters with Tecan Magellan software.

clinical = details: human, in vivo; for AUC(0-inf): AUC0-∞
[8] = 50 mg, single dose 50 mg, human volunteers
[9] = 100 mg, single dose 100 mg, human volunteers
[10] = 200 mg, single dose 200 mg, HCV patients, N = 2
[11] = 200 mg, single dose 200 mg, human volunteers
[12] = 400 mg, single dose 400 mg Fasted, human volunteers
[13] = 400 mg, single dose 400 mg, human volunteers

## COc1ccc2c(O[C@H]3CCN4C(=O)N(C)CCCC/C=C\[C@@H]5C[C@@]5(C(=O)NS(=O)(=O)C5(C)CC5)NC(=O)[C@@H]4C3)cc(-c3nc(C(F)(F)F)cs3)nc2c1C [Compound 52, 1-methyl-cyclopropanesulfonic acid{(Z)-(1S,4R,6S,18S)-18-[7-methoxy-8-methyl-2-(4-trifluoromethyl-thiazol-2-yl)-quinolin-4-yloxy]-13-methyl-2,14-dioxo-3,13,15-triaza-tricyclo[13.4.0.0*4,6*]nonadec-7-ene-4-carbonyl}amide]
[1]
  genotoxicity, human lymphocyte chromosomal aberration test: no genotoxicity
In vitro [2]
  CC50: 10000 to 75000 nM
1b replicon
  Selectivity Index: 50,400
1b replicon; Hepatitis C virus, 72 h, three days, luciferase assay
  EC50: 0.5 ± 0.1 nM
In vitro [3]
  Papp: 1.8 ×10⁻⁶ cm/s
  efflux ratio: 2.7
[4]
  fold-change values (resistance): no less than 250
[5]
  effects on the central nervous system, renal function, or gastrointestinal motility: no effects
[6]
  CC50 at 5 days: > 77000 nM
[7]
  IC50: 1.2 ± 0.1 nM
HCV NS3-NS4A protease
  IC50: < 1000 nM
clinical; [8]
  AUC(0-inf): 2020 ± 744 ng·h/mL
  Cmax: 346 ± 87 ng/mL
  Tmax: 3 h
clinical; 50 mg, T1/2, single dose 50 mg, human volunteers
  half-life: 13 ± 6 h
clinical; [9]
  AUC(0-inf): 3540 ± 1010 ng·h/mL
  Cmax: 467 ± 72 ng/mL
  Tmax: 3 h
clinical; 100 mg, T1/2, single dose 100 mg, human volunteers
  half-life: 24 ± 7 h
clinical; [10]
  AUC(0-inf): 13900 ng·h/mL
  Cmax: 1060 ng/mL
  Tmax: 3.5 h
clinical; [11]
  AUC(0-inf): 7240 ± 2930 ng·h/mL
  Cmax: 982 ± 463 ng/mL
  Tmax: 3 h
clinical; 200 mg, T1/2, single dose 200 mg, HCV patients, N = 2
  half-life: 32 h
clinical; 200 mg, T1/2, single dose 200 mg, human volunteers
  half-life: 26 ± 7 h
clinical; 400 mg
  AUC(0-inf): 9460 ± 2330 ng·h/mL
clinical; [12]
  AUC(0-inf): 4190 ± 1590 ng·h/mL
  Cmax: 368 ± 89 ng/mL
  Tmax: 3 h
clinical; [13]
  Cmax: 1120 ± 505 ng/mL
  Tmax: 3 h
clinical; 400 mg, T1/2, single dose 400 mg Fasted, human volunteers
  half-life: 15 ± 8 h
clinical; 400 mg, T1/2, single dose 400 mg, human volunteers
  half-life: 25 ± 7 h
